Read-outs that look alike come from different tables or passages of the source.
Assays:
Format in all cases: in vivo
[1] = test system: whitefly Bemisia tabaci adults; assay: Foliar use field trial on tomato, efficacy on whitefly adults; conditions: Bemisia tabaci, foliar
Method: (§1) Two studies were carried out in Elhasanya, Egypt in 2009 on tomato plants of the variety Fayrouz with the main goal to measure efficacy on the whitefly Bemisia tabaci. The plot size was 4.8 m^2 and 6 replicates were used in the trial. Products were applied 3 times on young tomato plants at BBCH stages 14, 17 and 51 at spray intervals between 12 and 19 days. The spray volume was at the first application 350 l/ha and later 500 l/ha. The evaluation of this study was done counting the adult whiteflies (Bemisia tabaci) as well as the nymphs and the eggs in each plot. In addition to the direct whitefly effect, visual symptoms of the virus, mainly TYLCV (tomato yellow leaf curl virus) were evaluated also.
(§2) ASM=Acibenzolar-S-methyl. WG 50=Actigard® 50WG, a water-dispersible granule with the active ingredient ASM CYNT=Cyantraniliprole. WG 40=Cyazypyr®, a water dispersable granule with the active ingredient CYNT. Results on whitefly adults. Trial 1

[2] = test system: whitefly Bemisia tabaci nymphs; assay: Foliar use field trial on tomato, efficacy on whitefly nymphs; conditions: Bemisia tabaci, foliar
Method: as §1, §2

[3] = test system: TYLCV (tomato yellow leaf curl virus); assay: Foliar use field trial on tomato, infected leaf area by TYLC virus
Method: as §1, §2
Evaluation of percentage of infected leaf area by TYLC virus (average of 45 plants evaluated per treatment) Trial 1

[4] = test system: whitefly Bemisia tabaci nymphs; assay: Soil use (drench) field trial on tomato, efficacy on whitefly nymphs; conditions: for Emax at 12.5 g/ha: 12.5 g ai/ha; for Emax at 25 g/ha: 25 g ai/ha
Method: as §1, with “Two soil applied” for “Two”, “plants” for “plants of the variety Fayrouz”, “Products were applied 3 times on young tomato plants at BBCH stages 14, 17 and 51 at spray intervals between 12 and 19 days.” left out, “350” for “350 l/ha and later 500”

## CSC(=O)c1cccc2nnsc12 [ASM, S-methyl benzo[1,2,3]thiadiazole-7-carbothioate]
[1]; 12.5 g ai/hl, 5DAA1, Trial 1, read-out: % Efficacy on Adults
  Emax: 53%
[1]; 12.5 g ai/hl, 5DAA1, Trial 2, read-out: % Efficacy on Adults
  Emax: 53%
[1]; 12.5 g ai/hl, 5DAA2, Trial 1, read-out: % Efficacy on Adults
  Emax: 45%
[1]; 12.5 g ai/hl, 5DAA2, Trial 2, read-out: % Efficacy on Adults
  Emax: 45%
[1]; 12.5 g ai/hl, 5DAA3, Trial 1, read-out: % Efficacy on Adults
  Emax: 55%
[1]; 12.5 g ai/hl, 5DAA3, Trial 2, read-out: % Efficacy on Adults
  Emax: 55%
[1]; 12.5 g ai/hl, 10DAA1, Trial 1, read-out: % Efficacy on Adults
  Emax: 43%
[1]; 12.5 g ai/hl, 10DAA1, Trial 2, read-out: % Efficacy on Adults
  Emax: 43%
[1]; 12.5 g ai/hl, 10DAA2, Trial 1, read-out: % Efficacy on Adults
  Emax: 37%
[1]; 12.5 g ai/hl, 10DAA2, Trial 2, read-out: % Efficacy on Adults
  Emax: 37%
[1]; 12.5 g ai/hl, 10DAA3, Trial 1, read-out: % Efficacy on Adults
  Emax: 46%
[1]; 12.5 g ai/hl, 10DAA3, Trial 2, read-out: % Efficacy on Adults
  Emax: 46%
[1]; 12.5 g ai/hl, 15DAA3, Trial 1, read-out: % Efficacy on Adults
  Emax: 38%
[1]; 12.5 g ai/hl, 15DAA3, Trial 2, read-out: % Efficacy on Adults
  Emax: 38%
[1]; 12.5 g ai/hl, 20DAA3, Trial 1, read-out: % Efficacy on Adults
  Emax: 12%
[1]; 12.5 g ai/hl, 20DAA3, Trial 2, read-out: % Efficacy on Adults
  Emax: 12%
[1]; 12.5 g ai/hl, Avg, Trial 1, read-out: % Efficacy on Adults Avg % C
  Emax: 41%
[1]; 25 g ai/hl, 5DAA1, Trial 1, read-out: % Efficacy on Adults
  Emax: 59%
[1]; 25 g ai/hl, 5DAA1, Trial 2, read-out: % Efficacy on Adults
  Emax: 59%
[1]; 25 g ai/hl, 5DAA2, Trial 1, read-out: % Efficacy on Adults
  Emax: 52%
[1]; 25 g ai/hl, 5DAA2, Trial 2, read-out: % Efficacy on Adults
  Emax: 52%
[1]; 25 g ai/hl, 5DAA3, Trial 1, read-out: % Efficacy on Adults
  Emax: 57%
[1]; 25 g ai/hl, 5DAA3, Trial 2, read-out: % Efficacy on Adults
  Emax: 57%
[1]; 25 g ai/hl, 10DAA1, Trial 1, read-out: % Efficacy on Adults
  Emax: 43%
[1]; 25 g ai/hl, 10DAA1, Trial 2, read-out: % Efficacy on Adults
  Emax: 43%
[1]; 25 g ai/hl, 10DAA2, Trial 1, read-out: % Efficacy on Adults
  Emax: 39%
[1]; 25 g ai/hl, 10DAA2, Trial 2, read-out: % Efficacy on Adults
  Emax: 39%
[1]; 25 g ai/hl, 10DAA3, Trial 1, read-out: % Efficacy on Adults
  Emax: 49%
[1]; 25 g ai/hl, 10DAA3, Trial 2, read-out: % Efficacy on Adults
  Emax: 49%
[1]; 25 g ai/hl, 15DAA3, Trial 1, read-out: % Efficacy on Adults
  Emax: 40%
[1]; 25 g ai/hl, 15DAA3, Trial 2, read-out: % Efficacy on Adults
  Emax: 40%
[1]; 25 g ai/hl, 20DAA3, Trial 1, read-out: % Efficacy on Adults
  Emax: 22%
[1]; 25 g ai/hl, 20DAA3, Trial 2, read-out: % Efficacy on Adults
  Emax: 22%
[1]; 25 g ai/hl, Avg, Trial 1, read-out: % Efficacy on Adults Avg % C
  Emax: 45%
[2]; 12.5 g ai/hl, 5DAA2, Trial 1, read-out: % Efficacy on Nymphs
  Emax: 5%
[2]; 12.5 g ai/hl, 5DAA2, Trial 2, read-out: % Efficacy on Nymphs
  Emax: 5%
[2]; 12.5 g ai/hl, 5DAA3, Trial 1, read-out: % Efficacy on Nymphs
  Emax: 62%
[2]; 12.5 g ai/hl, 5DAA3, Trial 2, read-out: % Efficacy on Nymphs
  Emax: 62%
[2]; 12.5 g ai/hl, 10DAA2, Trial 1, read-out: % Efficacy on Nymphs
  Emax: 52%
[2]; 12.5 g ai/hl, 10DAA2, Trial 2, read-out: % Efficacy on Nymphs
  Emax: 52%
[2]; 12.5 g ai/hl, 10DAA3, Trial 1, read-out: % Efficacy on Nymphs
  Emax: 46%
[2]; 12.5 g ai/hl, 10DAA3, Trial 2, read-out: % Efficacy on Nymphs
  Emax: 46%
[2]; 12.5 g ai/hl, 15DAA3, Trial 1, read-out: % Efficacy on Nymphs
  Emax: 42%
[2]; 12.5 g ai/hl, 15DAA3, Trial 2, read-out: % Efficacy on Nymphs
  Emax: 42%
[2]; 12.5 g ai/hl, 20DAA3, Trial 1, read-out: % Efficacy on Nymphs
  Emax: 27%
[2]; 12.5 g ai/hl, 20DAA3, Trial 2, read-out: % Efficacy on Nymphs
  Emax: 27%
[2]; 12.5 g ai/hl, Avg, Trial 1, read-out: % Efficacy on Nymphs Avg % C
  Emax: 39%
[2]; 25 g ai/hl, 5DAA2, Trial 1, read-out: % Efficacy on Nymphs
  Emax: 57%
[2]; 25 g ai/hl, 5DAA2, Trial 2, read-out: % Efficacy on Nymphs
  Emax: 57%
[2]; 25 g ai/hl, 5DAA3, Trial 1, read-out: % Efficacy on Nymphs
  Emax: 66%
[2]; 25 g ai/hl, 5DAA3, Trial 2, read-out: % Efficacy on Nymphs
  Emax: 66%
[2]; 25 g ai/hl, 10DAA2, Trial 1, read-out: % Efficacy on Nymphs
  Emax: 65%
[2]; 25 g ai/hl, 10DAA2, Trial 2, read-out: % Efficacy on Nymphs
  Emax: 65%
[2]; 25 g ai/hl, 10DAA3, Trial 1, read-out: % Efficacy on Nymphs
  Emax: 53%
[2]; 25 g ai/hl, 10DAA3, Trial 2, read-out: % Efficacy on Nymphs
  Emax: 53%
[2]; 25 g ai/hl, 15DAA3, Trial 1, read-out: % Efficacy on Nymphs
  Emax: 55%
[2]; 25 g ai/hl, 15DAA3, Trial 2, read-out: % Efficacy on Nymphs
  Emax: 55%
[2]; 25 g ai/hl, 20DAA3, Trial 1, read-out: % Efficacy on Nymphs
  Emax: 39%
[2]; 25 g ai/hl, 20DAA3, Trial 2, read-out: % Efficacy on Nymphs
  Emax: 39%
[2]; 25 g ai/hl, Avg, Trial 1, read-out: % Efficacy on Nymphs Avg % C
  Emax: 56%
[3]; 12.5 g ai/hl, 5DAA2, Trial 1
  % Infected Surface area with virus / plant: 0.0%
[3]; 12.5 g ai/hl, 5DAA2, Trial 2
  % Infected Surface area with virus / plant: 0.0%
[3]; 12.5 g ai/hl, 5DAA3, Trial 1
  % Infected Surface area with virus / plant: 1.0%
[3]; 12.5 g ai/hl, 5DAA3, Trial 2
  % Infected Surface area with virus / plant: 1.0%
[3]; 12.5 g ai/hl, 10DAA3, Trial 1
  % Infected Surface area with virus / plant: 9.6%
[3]; 12.5 g ai/hl, 10DAA3, Trial 2
  % Infected Surface area with virus / plant: 9.6%
[3]; 12.5 g ai/hl, 15DAA3, Trial 1
  % Infected Surface area with virus / plant: 9.9%
[3]; 12.5 g ai/hl, 15DAA3, Trial 2
  % Infected Surface area with virus / plant: 9.9%
[3]; 12.5 g ai/hl, 20DAA3, Trial 1
  % Infected Surface area with virus / plant: 10.7%
[3]; 12.5 g ai/hl, 20DAA3, Trial 2
  % Infected Surface area with virus / plant: 10.7%
[3]; 12.5 g ai/hl, 24DAA3, Trial 1
  % Infected Surface area with virus / plant: 14.4%
[3]; 12.5 g ai/hl, 24DAA3, Trial 2
  % Infected Surface area with virus / plant: 14.4%
[3]; 25 g ai/hl, 5DAA2, Trial 1
  % Infected Surface area with virus / plant: 0.0%
[3]; 25 g ai/hl, 5DAA2, Trial 2
  % Infected Surface area with virus / plant: 0.0%
[3]; 25 g ai/hl, 5DAA3, Trial 1
  % Infected Surface area with virus / plant: 0.0%
[3]; 25 g ai/hl, 5DAA3, Trial 2
  % Infected Surface area with virus / plant: 0.0%
[3]; 25 g ai/hl, 10DAA3, Trial 1
  % Infected Surface area with virus / plant: 3.3%
[3]; 25 g ai/hl, 10DAA3, Trial 2
  % Infected Surface area with virus / plant: 3.3%
[3]; 25 g ai/hl, 15DAA3, Trial 1
  % Infected Surface area with virus / plant: 4.7%
[3]; 25 g ai/hl, 15DAA3, Trial 2
  % Infected Surface area with virus / plant: 4.7%
[3]; 25 g ai/hl, 20DAA3, Trial 1
  % Infected Surface area with virus / plant: 5.0%
[3]; 25 g ai/hl, 20DAA3, Trial 2
  % Infected Surface area with virus / plant: 5.0%
[3]; 25 g ai/hl, 24DAA3, Trial 1
  % Infected Surface area with virus / plant: 7.2%
[3]; 25 g ai/hl, 24DAA3, Trial 2
  % Infected Surface area with virus / plant: 7.2%
[4]; 25DAA1, Trial 2
  Emax at 12.5 g/ha: 29%
  Emax at 25 g/ha: 69%
[4]; 30DAA1, Trial 2
  Emax at 12.5 g/ha: 39%
  Emax at 25 g/ha: 43%
[4]; 35DAA1, Trial 2
  Emax at 12.5 g/ha: 22%
  Emax at 25 g/ha: 14%
[4]; 40DAA2, Trial 2
  Emax at 12.5 g/ha: 11%
  Emax at 25 g/ha: 6%
[4]; 240 h, 10DAA, Trial 1
  Emax at 12.5 g/ha: 47%
  Emax at 25 g/ha: 50%
[4]; 360 h, 15DAA, Trial 1
  Emax at 12.5 g/ha: 21%
  Emax at 25 g/ha: 47%
[4]; 480 h, 20DAA, Trial 1
  Emax at 12.5 g/ha: 31%
  Emax at 25 g/ha: 54%
[4]; 600 h, 25DAA, Trial 1
  Emax at 12.5 g/ha: 60%
  Emax at 25 g/ha: 50%
[4]; 720 h, 30DAA, Trial 1
  Emax at 12.5 g/ha: 47%
  Emax at 25 g/ha: 49%
[4]; 840 h, 35DAA, Trial 1
  Emax at 12.5 g/ha: 41%
  Emax at 25 g/ha: 44%
[4]; 960 h, 40DAA, Trial 1
  Emax at 12.5 g/ha: 28%
  Emax at 25 g/ha: 33%

— patent publication US20130212744A1, “METHOD OF REDUCING INSECT-VECTORED VIRAL INFECTIONS” (priority 2010, published 2013)
